Patent US10597388B2, “Pyridazinone herbicides” (FMC CORPORATION, priority 2014, dated 2020)

Tests used:
Format in all cases: in vivo
[1] = system: ducksalad (Heteranthera limosa); experiment: Test B flooded paddy test; details: 250 g ai/ha, Flood; visual rating on scale of 0 to 100 where 0 is no effect and 100 is complete control; 13 to 15 d after treatment
Procedure, shortened: (§1)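 Ratings use a 0-100 visual scale, where 100 is complete control, and compare treated plants with controls after 13 to 15 d of greenhouse growth. Compound went straight into paddy water kept 3 cm over the soil surface, applied to seedlings at the 2-leaf stage.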

[2] = system: barnyardgrass (Echinochloa crus-galli); experiment: Test B flooded paddy test; details: 250 g ai/ha, Flood; visual rating on scale of 0 to 100 where 0 is no effect and 100 is complete control; 13 to 15 d after treatment
Procedure, shortened: as §1

rice (Oryza sativa) = experiment: Test B flooded paddy test; details: 250 g ai/ha, Flood; visual rating on scale of 0 to 100 where 0 is no effect and 100 is complete control; 13 to 15 d after treatment
Procedure, shortened: as §1

[3] = system: sedge, umbrella (small-flower umbrella sedge, Cyperus difformis); experiment: Test B flooded paddy test; details: 250 g ai/ha, Flood; visual rating on scale of 0 to 100 where 0 is no effect and 100 is complete control; 13 to 15 d after treatment
Procedure, shortened: as §1

[4] = system: blackgrass (Alopecurus myosuroides); experiment: Test A greenhouse herbicide test, postemergence
Procedure, shortened: (§2)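 Seedlings in a loam soil and sand mix received formulated compound postemergence at the one- to two-leaf stage. Greenhouse holding lasts approximately 10 d, then injury is scored visually relative to untreated plants, 0 meaning no effect and 100 complete control.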

[5] = system: galium (catchweed bedstraw, Galium aparine); experiment: Test A greenhouse herbicide test, postemergence
Procedure, shortened: as §2

[6] = system: foxtail, giant (giant foxtail, Setaria faberii); experiment: Test A greenhouse herbicide test, pre- and postemergence
From the text: (§3) Seeds of plant species selected from barnyardgrass (Echinochloa crus-galli), kochia (Kochia scoparia), ragweed (common ragweed, Ambrosia elatior), ryegrass, Italian (Italian ryegrass, Lolium multiflorum), crabgrass, large (large crabgrass, Digitaria sanguinalis), foxtail, giant (giant foxtail, Setaria faberii), momingglory (Ipomoea spp.), pigweed (Amaranthus retroflexus), velvetleaf (Abutilon theophrasti), wheat (Triticum aestivum), and corn (Zea mays) were planted into a blend of loam soil and sand and treated preemergence with a directed soil spray using test chemicals formulated in a non-phytotoxic solvent mixture which included a surfactant.
(§4) At the same time, plants selected from these crop and weed species and also blackgrass (Alopecurus myosuroides), and galium (catchweed bedstraw, Galium aparine) were planted in pots containing the same blend of loam soil and sand and treated with postemergence applications of test chemicals formulated in the same manner. Plants ranged in height from 2 to 10 cm and were in the one- to two-leaf stage for the postemergence treatment. Treated plants and untreated controls were maintained in a greenhouse for approximately 10 d, after which time all treated plants were compared to untreated controls and visually evaluated for injury. Plant response ratings, summarized in Table A, are based on a 0 to 100 scale where 0 is no effect and 100 is complete control. A dash (-) response means no test result.

[7] = system: barnyardgrass (Echinochloa crus-galli); experiment: as above
From the text: as §3, §4

[8] = system: wheat (Triticum aestivum); experiment: as above; details: Postemergence
From the text: as §3, §4

[9] = system: ragweed (common ragweed, Ambrosia elatior); experiment: as above
From the text: as §3, §4

[10] = system: ryegrass, Italian (Italian ryegrass, Lolium multiflorum); experiment: as above
From the text: as §3, §4

corn (Zea mays) = experiment: as above; details: Postemergence
From the text: as §3, §4

kochia (Kochia scoparia) = experiment: as above
From the text: as §3, §4

[11] = system: pigweed (Amaranthus retroflexus); experiment: as above
From the text: as §3, §4

[12] = 125 g ai/ha, 0 to 100 scale where 0 is no effect and 100 is complete control
[13] = 500 g ai/ha, visual rating after approx. 10 d, 0 to 100 scale (0 no effect, 100 complete control)
[14] = Postemergence, 125 g ai/ha, 0 to 100 scale where 0 is no effect and 100 is complete control
[15] = Postemergence, 500 g ai/ha, visual rating after approx. 10 d, 0 to 100 scale (0 no effect, 100 complete control)
[16] = Preemergence, 125 g ai/ha, 0 to 100 scale where 0 is no effect and 100 is complete control
[17] = Preemergence, 500 g ai/ha, 0 to 100 scale where 0 is no effect and 100 is complete control
[18] = 125 g ai/ha, 0 to 100 scale, 0 no effect, 100 complete control
[19] = Postemergence, 125 g ai/ha, 0 to 100 scale, 0 no effect, 100 complete control
[20] = Preemergence, 125 g ai/ha, visual injury rating, 0 to 100 scale (0 no effect, 100 complete control), approx. 10 d

SMILES | Plant response rating, Ducksalad [1] | Plant response rating, Barnyardgrass [2] | Plant response rating, Rice (rice (Oryza sativa)) | Plant response rating, Sedge, Umbrella [3] | Plant response rating, Blackgrass [4, 13] | Plant response rating, Galium [5, 13] | Plant response rating, Foxtail, Giant [6, 15] | Plant response rating, Foxtail, Giant [6, 17] | Plant response rating, Barnyardgrass [7, 15] | Plant response rating, Barnyardgrass [7, 17] | Plant response rating, Wheat [8, 13] | Plant response rating, Ragweed [9, 15] | Plant response rating, Ragweed [9, 17] | Plant response rating, Ryegrass, Italian [10, 15] | Plant response rating, Ryegrass, Italian [10, 17] | Plant response rating, Corn (corn (Zea mays); [13]) | Plant response rating, Kochia (kochia (Kochia scoparia); [15]) | Plant response rating, Kochia (kochia (Kochia scoparia); [17]) | Plant response rating, Pigweed [11, 15] | Plant response rating, Pigweed [11, 17] | further results
CCOC(=O)Oc1c(C)nn(C)c(=O)c1-c1c(C(F)(F)F)ccc2ccccc12 [Compound 146] | 0 | 0 | 0 | 0 | 70 | 90 | 70 | 50 | 30 | 50 | 70 | 100 | 80 | 100 | 80 | 30 | 100 | 70 | 90 | 100 | Plant response rating, Blackgrass [4, 12]: 20; Plant response rating, Galium [5, 12]: 80; Plant response rating, Foxtail, Giant [6, 14]: 10; Foxtail, Giant plant response rating [6, 16]: 0; Plant response rating, Barnyardgrass [7, 14]: 0; Barnyardgrass plant response rating [7, 16]: 0; Plant response rating, Wheat [8, 12]: 0; Plant response rating, Ragweed [9, 14]: 90; Plant response rating, Ryegrass, Italian [10, 14]: 70; Plant response rating, Corn (corn (Zea mays); [12]): 0; Plant response rating, Kochia (kochia (Kochia scoparia); [14]): 70; Kochia plant response rating (kochia (Kochia scoparia); [16]): 20; Plant response rating, Pigweed [11, 14]: 90; Pigweed plant response rating [11, 16]: 100
CCC(=O)Oc1c(C)nn(C)c(=O)c1-c1c(C(F)(F)F)ccc2ccccc12 [Compound 147] | 0 | 0 | 0 | 0 | 90 | 100 | 80 | 40 | 40 | 60 | 80 | 90 | 90 | 100 | 100 | 0 | 100 | 80 | 90 | 100 | Plant response rating, Blackgrass [4, 12]: 60; Plant response rating, Galium [5, 12]: 90; Plant response rating, Foxtail, Giant [6, 14]: 30; Foxtail, Giant plant response rating [6, 16]: 10; Plant response rating, Barnyardgrass [7, 14]: 10; Barnyardgrass plant response rating [7, 16]: 30; Plant response rating, Wheat [8, 12]: 20; Plant response rating, Ragweed [9, 14]: 90; Plant response rating, Ryegrass, Italian [10, 14]: 90; Plant response rating, Corn (corn (Zea mays); [12]): 0; Plant response rating, Kochia (kochia (Kochia scoparia); [14]): 80; Kochia plant response rating (kochia (Kochia scoparia); [16]): 50; Plant response rating, Pigweed [11, 14]: 90; Pigweed plant response rating [11, 16]: 90
CC(=O)Oc1c(C)nn(C)c(=O)c1-c1c(C(F)(F)F)ccc2ccccc12 [Compound 148] | 0 | 0 | 0 | 0 | 80 | 90 | 70 | 50 | 30 | 60 | 60 | 90 | 80 | 90 | 100 | 0 | 90 | 90 | 90 | 100 | Plant response rating, Blackgrass [4, 12]: 60; Plant response rating, Galium [5, 12]: 90; Plant response rating, Foxtail, Giant [6, 14]: 30; Foxtail, Giant plant response rating [6, 16]: 20; Plant response rating, Barnyardgrass [7, 14]: 10; Barnyardgrass plant response rating [7, 16]: 10; Plant response rating, Wheat [8, 12]: 20; Plant response rating, Ragweed [9, 14]: 90; Plant response rating, Ryegrass, Italian [10, 14]: 90; Plant response rating, Corn (corn (Zea mays); [12]): 0; Plant response rating, Kochia (kochia (Kochia scoparia); [14]): 80; Kochia plant response rating (kochia (Kochia scoparia); [16]): 30; Plant response rating, Pigweed [11, 14]: 90; Pigweed plant response rating [11, 16]: 100
C#Cc1ccc2cccc(-c3c(O)c(C)nn(C)c3=O)c2c1 [Compound 150] | 0 | 0 | 0 | 0 | 50 | 80 | 30 | 30 | 30 | 10 | 20 | 30 | 30 | 90 | 70 | 0 | 70 | 20 | 80 | 100 | Plant response rating, Blackgrass [4, 12]: 0; Plant response rating, Galium [5, 12]: 30; Plant response rating, Foxtail, Giant [6, 14]: 0; Foxtail, Giant plant response rating [6, 16]: 0; Plant response rating, Barnyardgrass [7, 14]: 0; Barnyardgrass plant response rating [7, 16]: 0; Plant response rating, Wheat [8, 12]: 0; Plant response rating, Ragweed [9, 14]: 0; Plant response rating, Ryegrass, Italian [10, 14]: 40; Plant response rating, Corn (corn (Zea mays); [12]): 0; Plant response rating, Kochia (kochia (Kochia scoparia); [14]): 40; Kochia plant response rating (kochia (Kochia scoparia); [16]): 0; Plant response rating, Pigweed [11, 14]: 40; Pigweed plant response rating [11, 16]: 80
Cc1ccc2ccccc2c1-c1c(OS(C)(=O)=O)c(Br)nn(C)c1=O [Compound 155] | 50 | 0 | 20 | 65 | 70 | 90 | 90 | 90 | 80 | 80 | 50 | 100 | 90 | 90 | 90 | 20 | 80 | 90 | 100 | 100 | Plant response rating, Blackgrass [4, 18]: 60; Plant response rating, Galium [5, 18]: 90; Plant response rating, Foxtail, Giant [6, 19]: 80; Plant response rating, Foxtail, Giant [6, 20]: 60; Plant response rating, Barnyardgrass [7, 19]: 30; Plant response rating, Barnyardgrass [7, 20]: 50; Plant response rating, Wheat [8, 18]: 30; Plant response rating, Ragweed [9, 19]: 100; Plant response rating, Ragweed [9, 20]: 90; Plant response rating, Ryegrass, Italian [10, 19]: 90; Plant response rating, Ryegrass, Italian [10, 20]: 70; Plant response rating, Corn (corn (Zea mays); [18]): 0; Plant response rating, Kochia (kochia (Kochia scoparia); [19]): 70; Plant response rating, Kochia (kochia (Kochia scoparia); [20]): 20; Plant response rating, Pigweed [11, 19]: 90; Plant response rating, Pigweed [11, 20]: 100
